Where two headings read alike, the source gives them in different places.
Experiments:
[1] = Permeability in CALU-3 cells; format: in vitro ADME; conditions: human, CALU-3 monolayers, 10 μM compound, pH 7.4, 37° C.; for Papp A→B at 90 min, 10 μM: apical-to-basal; for Papp B→A at 90 min, 10 μM: basal-to-apical
Experimental: Permeability in CALU-3 Cells:
Permeability measurements across polarized, confluent CALU-3 cell monolayers grown on permeable filter supports are used to provide information on the potential of a compound to pass the lung epithelium. Apparent permeability coefficients (Papp) of the compounds across the CALU-3 cell monolayers are measured (pH 7.4, 37° C.) in apical-to-basal (AB) and basal-toapical (BA) transport direction.
CALU-3 cells (1-2×10^5 cells/1 cm^2 area) are seeded on filter inserts (Costar transwell polycarbonate filters, 0.4 μm pore size) and cultured (for 10-12 days DMEM) until tight monolayers are formed. Compounds of interest are dissolved in appropriate solvent (DMSO, 10 mM stock solution). Stock solutions are diluted with HTP-4 buffer (128.13 mM NaCl, 5.36 mM KC, 1 mM MgSO4, 1.8 mM CaCl2, 4.17 mM NaHCO3, 1.19 mM Na2HPO4×7H2O, 0.41 mM NaH2PO4xH2O, 15 mM HEPES, 20 mM glucose, 0.25% BSA, pH 7.4) to prepare the transport solutions (10 μM compound, final DMSO<=0.5%). The transport solution (TL) is applied to the apical or basolateral donor side for measuring A-B or B-A permeability (3 filter replicates), respectively. The receiver side contains the same buffer as the donor side. After 30 min of accommodation, samples are collected at the start t0=0 min and at the end of the experiment tn=90 min from the donor and at 0, 30, 60, and 90 min also from the receiver chamber. Volume removed is replenished by HTP-4 buffer. The compound concentration in the samples is measured by HPLC-MS/MS or scintillation counting. The permeability coefficient (Papp) and efflux ratio are calculated according to: Papp [cm/s]=(concentration receiver [nM]*volume receiver [mL]/time interval [sec])*(1/filter area)*(1/donor concentration [nM])
With example compounds given above, the following permeability values were determined in the CALU-3 cells assay: […]

[2] = molecular target: T1, ENaC (Epithelial Sodium Channel) (Mus musculus, UniProt Q61180+Q9WU38+Q9WU39); test: Ussing chamber: short circuit current in M-1 cells; format: cell-based
T1 construct: Mouse kidney M-1 cells were cultivated in DMEM; endogenous in cells; host or cells: mouse kidney M-1 cells
T1 sequence (Q61180 1-699): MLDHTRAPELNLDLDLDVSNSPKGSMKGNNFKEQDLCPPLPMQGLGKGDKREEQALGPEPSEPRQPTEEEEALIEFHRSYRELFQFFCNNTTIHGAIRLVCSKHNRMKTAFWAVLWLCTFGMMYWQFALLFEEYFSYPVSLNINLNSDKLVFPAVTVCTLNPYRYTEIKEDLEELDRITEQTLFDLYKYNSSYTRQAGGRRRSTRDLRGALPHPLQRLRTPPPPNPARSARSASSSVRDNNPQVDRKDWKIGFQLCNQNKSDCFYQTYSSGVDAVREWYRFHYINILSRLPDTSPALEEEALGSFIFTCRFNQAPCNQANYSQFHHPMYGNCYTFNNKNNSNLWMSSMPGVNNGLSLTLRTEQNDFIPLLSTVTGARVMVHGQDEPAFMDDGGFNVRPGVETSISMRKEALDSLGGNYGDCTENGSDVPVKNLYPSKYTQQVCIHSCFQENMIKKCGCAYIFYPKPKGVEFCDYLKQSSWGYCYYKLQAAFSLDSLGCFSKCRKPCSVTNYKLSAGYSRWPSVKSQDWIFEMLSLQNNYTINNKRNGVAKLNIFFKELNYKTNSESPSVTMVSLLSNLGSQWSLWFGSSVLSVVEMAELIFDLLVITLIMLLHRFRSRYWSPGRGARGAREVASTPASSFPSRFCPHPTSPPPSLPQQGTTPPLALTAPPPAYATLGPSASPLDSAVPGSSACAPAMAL
T1 sequence (Q9WU38 1-638): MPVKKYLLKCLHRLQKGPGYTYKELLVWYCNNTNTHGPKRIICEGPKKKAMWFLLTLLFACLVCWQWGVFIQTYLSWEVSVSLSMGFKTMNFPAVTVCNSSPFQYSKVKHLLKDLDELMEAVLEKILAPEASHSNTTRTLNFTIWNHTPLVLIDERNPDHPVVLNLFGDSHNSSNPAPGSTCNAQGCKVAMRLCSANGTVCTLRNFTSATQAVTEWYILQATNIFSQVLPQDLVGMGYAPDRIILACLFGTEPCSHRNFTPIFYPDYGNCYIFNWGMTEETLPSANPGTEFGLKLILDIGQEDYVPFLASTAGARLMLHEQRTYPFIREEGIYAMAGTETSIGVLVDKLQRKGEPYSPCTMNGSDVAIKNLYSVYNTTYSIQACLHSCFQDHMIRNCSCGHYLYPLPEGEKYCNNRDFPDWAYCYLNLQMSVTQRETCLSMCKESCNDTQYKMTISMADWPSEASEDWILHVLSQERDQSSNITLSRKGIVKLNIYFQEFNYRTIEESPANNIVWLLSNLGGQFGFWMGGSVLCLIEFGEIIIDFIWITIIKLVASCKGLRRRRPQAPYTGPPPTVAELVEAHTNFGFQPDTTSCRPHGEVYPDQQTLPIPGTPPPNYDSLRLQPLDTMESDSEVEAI
T1 sequence (Q9WU39 1-655): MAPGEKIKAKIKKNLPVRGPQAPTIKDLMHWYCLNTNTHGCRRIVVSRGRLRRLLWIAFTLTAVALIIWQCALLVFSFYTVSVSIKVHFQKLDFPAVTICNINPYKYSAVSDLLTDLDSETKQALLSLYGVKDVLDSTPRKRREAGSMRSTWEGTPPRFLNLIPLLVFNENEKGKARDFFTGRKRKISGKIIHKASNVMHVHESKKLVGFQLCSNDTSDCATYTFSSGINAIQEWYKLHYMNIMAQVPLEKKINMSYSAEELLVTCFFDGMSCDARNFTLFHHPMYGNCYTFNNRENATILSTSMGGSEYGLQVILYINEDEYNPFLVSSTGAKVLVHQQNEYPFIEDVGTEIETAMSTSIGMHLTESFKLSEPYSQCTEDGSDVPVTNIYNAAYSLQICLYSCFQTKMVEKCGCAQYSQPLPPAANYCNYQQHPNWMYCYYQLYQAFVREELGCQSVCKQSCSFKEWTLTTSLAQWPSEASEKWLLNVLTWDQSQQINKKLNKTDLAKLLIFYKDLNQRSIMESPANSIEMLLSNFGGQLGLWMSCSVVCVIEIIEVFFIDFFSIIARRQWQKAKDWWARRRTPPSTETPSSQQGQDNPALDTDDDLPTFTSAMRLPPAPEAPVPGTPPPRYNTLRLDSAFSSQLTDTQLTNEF
Experimental: Mouse kidney M-1 cells were cultivated in DMEM containing 5% FCS and 5 μM dexamethasone for 10 to 12 days on polyester transwell filters. Filters were inserted into a teflon-coated well-plate which fit into the ussing chamber system. Prior to measurement the medium of M-1 cells was replaced with Caco-2 transport buffer (Invitrogen, Germany). During measurements, the Ussing chamber temperature was kept at 37° C. Short circuit currents (I_sc) were measured in the voltage-clamp mode with the software package Lab View for data acquisition and analysis. The transepithelial electrical resistance (TEER) was determined by the application of voltage steps of ±5 mV every 5 sec. Compounds were administered at a final concentration of 3 μM or at increasing concentrations (1-3-10 μM) to the apical solution. At the end of each experiment the amiloride sensitive I_SC was measured by adding 3 μM amiloride to the apical compartment. Results are expressed as inhibition in percent of the amiloride effect or as IC50.
With the example compounds given above, the following IC50 values were determined in the Ussing Chamber assay: […]

[3] = Ussing chamber, mouse kidney M-1 cells, amiloride sensitive I_SC, apical application, 37° C., read-out: IC50

SMILES | IC50 [2, 3] [nM] | further results
CCOP(=O)([O-])CCCOc1ccc2c(c1)n(CC)c(CNC(=O)c1nc(Cl)c(N)nc1N)[n+]2CCOC [Example 1.1] | 11 | Papp A→B at 90 min, 10 μM [1]: 0.1 ×10⁻⁶ cm/s; Papp B→A at 90 min, 10 μM [1]: 0.03 ×10⁻⁶ cm/s
CCn1c(CNC(=O)c2nc(Cl)c(N)nc2N)[n+](C[C@H](C)O)c2cc(OCCN)ccc21 [Example 1.7] | 2 | Papp A→B at 90 min, 10 μM [1]: 0.03 ×10⁻⁶ cm/s; Papp B→A at 90 min, 10 μM [1]: 0.05 ×10⁻⁶ cm/s
CCOP(=O)([O-])CCCOc1ccc2c(c1)n(CC)c(CNC(=O)c1nc(Br)c(N)nc1N)[n+]2CCOC [Example 2.1] | 16 | Papp A→B at 90 min, 10 μM [1]: 0.2 ×10⁻⁶ cm/s; Papp B→A at 90 min, 10 μM [1]: 0.08 ×10⁻⁶ cm/s
CCOP(=O)(CCCOc1ccc2c(c1)n(CC)c(CNC(=O)c1nc(Cl)c(N)nc1N)[n+]2CC)OCC [Example 3.1] | 3 | –
CCn1c(CNC(=O)c2nc(Cl)c(N)nc2N)[n+](CC)c2ccc(O[C@H](C)C(=O)N3CCNC(=O)C3)cc21 [Example 3.3] | 1 | –
CCNC(=O)COc1ccc2c(c1)n(C(C)C)c(CNC(=O)c1nc(Cl)c(N)nc1N)[n+]2CC [Example 3.4] | 1 | –
CC[n+]1c(CNC(=O)c2nc(Cl)c(N)nc2N)n(CCCCCO)c2cc(O)ccc21 [Example 3.7] | – | Papp A→B at 90 min, 10 μM [1]: 0.7 ×10⁻⁶ cm/s; Papp B→A at 90 min, 10 μM [1]: 0.3 ×10⁻⁶ cm/s
CCn1c(CNC(=O)c2nc(Cl)c(N)nc2N)[n+](C)c2ccc(O)cc21 [Example 3.9] | 1 | –
CCOP(=O)(CCCOc1ccc2c(c1)n(CC)c(CNC(=O)c1nc(Cl)c(N)nc1N)[n+]2CCOC)OCC [Example 3.13] | – | IC50 [2]: 2 nM
CCNC(=O)COc1ccc2c(c1)n(CC)c(CNC(=O)c1nc(Cl)c(N)nc1N)[n+]2CC [Example 3.14] | 0.3 | –
CCn1c(CNC(=O)c2nc(Cl)c(N)nc2N)[n+](CC)c2ccc(CN)cc21 [Example 6.1] | 1 | –
CCn1c(CNC(=O)c2nc(Cl)c(N)nc2N)[n+](CC)c2ccc(OCCNC(=O)C[N+](C)(C)C)cc21 [Example 8.1] | 0.4 | –
CCn1c(CNC(=O)c2nc(Cl)c(N)nc2N)[n+](CC)c2ccc(C[N+](C)(C)C)cc21 [Example 8.3] | 2 | –
CCn1c(CNC(=O)c2nc(Cl)c(N)nc2N)[n+](CC)c2ccc(OCCNCC(=O)OC)cc21 [Example 9.1] | 2 | –

Further compounds by falling IC50 [2, 3], results first:

IC50 [2, 3] [nM] | SMILES | further results
11 | CCn1c(CNC(=O)c2nc(Cl)c(N)nc2N)[n+](CC)c2ccc(OCCCP(=O)([O-])O)cc21 [Example 4.1] | –
9 | CCn1c(CNC(=O)c2nc(Cl)c(N)nc2N)[n+](CC)c2ccc(CNC(=O)OCC3c4ccccc4-c4ccccc43)cc21 [Example 1.2] | –
5 | CCn1c(CNC(=O)c2nc(Cl)c(N)nc2N)[n+](CC)c2ccc(OCCNCC(=O)[O-])cc21 [Example 5.1] | –
5 | CCn1c(CNC(=O)c2nc(Cl)c(N)nc2N)[n+](CC)c2ccc(CNC(=O)C[N+](C)(C)C)cc21 [Example 8.2] | –
4 | CCNC(=O)c1cc2c(cc1OCC(=O)N1CCNCC1)n(CC)c(CNC(=O)c1nc(Cl)c(N)nc1N)[n+]2CC [Example 6.3] | –
3 | CCn1c(CNC(=O)c2nc(Cl)c(N)nc2N)[n+](CC)c2ccc(O[C@@H]3CO[C@H]4[C@@H]3OC[C@H]4O)cc21 [Example 3.15] | –
2 | CCn1c(CNC(=O)c2nc(Cl)c(N)nc2N)[n+](CC)c2cc(Cl)c(N(CCO)CCO)cc21 [Example 1.3] | –
2 | CCn1c(CNC(=O)c2nc(Cl)c(N)nc2N)[n+](CC)c2ccc(CNC(=O)COc3cc(C(=O)N[C@H]4CC[C@H](N(C)C)CC4)cc(C(=O)N[C@H]4CC[C@H](N(C)C)CC4)c3)cc21 [Example 11.1] | –
1 | CCn1c(CNC(=O)c2nc(Cl)c(N)nc2N)[n+](CC)c2cc(Cl)c(O[C@H]3CO[C@H]4[C@@H]3OC[C@@H]4O)cc21 [Example 1.5] | Papp A→B at 90 min, 10 μM [1]: 0.3 ×10⁻⁶ cm/s; Papp B→A at 90 min, 10 μM [1]: 0.1 ×10⁻⁶ cm/s
1 | CCNC(=O)[C@H](C)Oc1ccc2c(c1)n(CC)c(CNC(=O)c1nc(Cl)c(N)nc1N)[n+]2CC [Example 3.6] | –
1 | CCn1c(CNC(=O)c2nc(Cl)c(N)nc2N)[n+](CC)c2ccc(OCCN)cc21 [Example 6.2] | –
0.5 | CCn1c(CNC(=O)c2nc(Cl)c(N)nc2N)[n+](CC)c2cc(Cl)c(OCCOCCOC)cc21 [Example 3.2] | –
0.5 | CCNC(=O)[C@@H](C)Oc1ccc2c(c1)n(CC)c(CNC(=O)c1nc(Cl)c(N)nc1N)[n+]2CC [Example 3.5] | Papp A→B at 90 min, 10 μM [1]: 1 ×10⁻⁶ cm/s; Papp B→A at 90 min, 10 μM [1]: 0.4 ×10⁻⁶ cm/s
0.4 | CCn1c(CNC(=O)c2nc(Cl)c(N)nc2N)[n+](CC)c2ccc(OCCNC(=O)OC(C)(C)C)cc21 [Example 1.4] | –
0.3 | CCn1c(CNC(=O)c2nc(Cl)c(N)nc2N)[n+](CC)c2ccc(OCCNC(=N)N)cc21 [Example 10.1] | –
0.2 | CCn1c(CNC(=O)c2nc(Cl)c(N)nc2N)[n+](CC)c2ccc(O)cc21 [Example 3.10] | –
